Patent EP0507188A1, “Substituted 2',3'-dideoxy-5-trifluoromethyluridines, method of their preparation and their use in medicaments” (BAYER AG, priority 1991, dated 1992)
Read-outs that look alike come from different tables or passages of the source.

Assays:
[1] = tested on: Hepatitis B Virus (HBV); assay: HBV test system in HBV-DNA-transfected hepatoma cells (HEP G2.2.15): HBV DNA in supernatant, HBsAg ELISA; type: cell-based; conditions: read-out: IC₅₀
From the text: Es wurde überraschend gefunden, daß die erfindungsgemäßen Verbindungen der allgemeinen Formel (I) eine außerordentlich starke spezifische Wirkung gegen das Heptatitis B Virus (HBV) besitzen. Der Nachweis wurde in mit Hepatitis B Virus DNA transfizierten Hepatomzellen (HEP G2.2.15) geführt.
Die Ergebnisse der unten aufgeführten Beispiele wurden zu dem in der folgenden Literaturangabe [Sells, M.A.; Chen, M.L., Acs, G., Proc. Natl. Acad. Sci. USA S. 1005 - 1009, Vol. 84 (1987)] beschriebenen HBV Testsystem ermittelt: Transfizierte Hepatomzellen (HEP G2.2.15) wurden mit verschiedenen Konzentrationen an der jeweiligen Verbindung inkubiert. Durch Behandlung der transfizierten Hepatomzellinie HEP G2.2.15 mit den erfindungsgemäßen Verbindungen konnte das […] der virusspezifischen HBV DNA im Überstand sowie eine Reduktion des HBsAg Spiegels gezeigt werden. Es wurde weiter gefunden, daß die erfindungsgemäßen Verbindungen zu einer Reduktion der replikativen Intermediate der Hepatitisviren führen. Im Überstand der Zellkulturen wurde nach PEG Fällung der Gehalt an HBV DNA bestimmt. Dies geschah unter Verwendung einer nicht radioaktiv markierten HBV genomischen DNA Probe [Pauly, P., 1982, P.H.D. Thesis, University of Göttingen, F.R.G.; Köchel et al., 1990, EMBL, Accession-Nr. X 51790]. Gleichzeitig erfolgte der Nachweis der Beeinflussung der HBsAg Bildung mittels eines kommerziell erhältlichen Elisa Tests. Die angegebenen IC₅₀-Werte beziehen sich auf die Substratkonzentrationen, die unter den oben aufgeführten Testbedingungen eine 50%ige Hemmung der HBV DNA Konzentration im Überstand bewirken.

[2] = tested on: HEL-Zellen; assay: Effect on vitality of other cells by incubation (HEL); type: cell-based; conditions: no influence on vitality up to this concentration
Protocol: (§1) Die Wirkung des Beispiels 2 auf andere Zellen wurde durch Inkubation von HEL-, MEF-Zellen getestet. Es zeigte sich keine Beeinflussung der Vitalität dieser Zellen bis zu einer Konzentration von 250 µM.

[3] = tested on: MEF-Zellen; assay: Effect on vitality of other cells by incubation (MEF); type: cell-based; conditions: no influence on vitality up to this concentration
Protocol: as §1

[4] = Water solubility (qualitative remark on the lyophilisate); type: physicochemical; conditions: lyophilisate of the sodium salt
[5] = HEP G2.2.15 cells, concentration giving 50% inhibition of HBV DNA concentration in supernatant

With O=c1[nH]c(=O)n([C@H]2CC[C@@H](CO)O2)cc1C(F)(F)F [Beispiel 2, β-2',3'-Didesoxy-5-(trifluormethyl)-uridin] the IC50 [1, 5] was 0.01 nM, the “Beeinflussung der Vitalität dieser Zellen” value [2] was greater than 250 µM and the “Beeinflussung der Vitalität dieser Zellen” value [3] was greater than 250 µM.
In the case of Nc1ccn([C@H]2CC[C@@H](CO)O2)c(=O)n1 [DDC, 2',3'-Didesoxy-cytidin, reference compound], the IC50 ([1]; Hepatitis B virus, HepG2.2.15, reference substances in the same test system (HEP G2.2.15, HBV DNA in supernatant)) is reported as 5000 nM.
Nc1ncnc2c1ncn2[C@H]1CC[C@@H](CO)O1 [DDA, reference compound] showed an IC50 ([1]; reference substances in the same test system (HEP G2.2.15, HBV DNA in supernatant)) greater than 100000 nM.
In the case of O=c1[nH]c(=O)n([C@H]2CC[C@@H](CO)O2)cc1C(F)(F)F.[Na] [Beispiel 12, β-2',3'-Didesoxy-5-(trifluormethyl)-uridin-natriumsalz], the Wasserlöslichkeit [4] is reported as “gut wasserlösliches”.
“β-5'-(1-Ethoxycarbonyloxy-eth-1-yl)-2',3'-didesoxy-5-(trifluormethyl)-uridin [Beispiel 5]” showed an IC50 [1, 5] greater than 0.25 nM.
